Patent US6833376B2, “5-aminoalkyl and 5-aminocarbonyl substituted indoles” (H. Lundbeck A/S, priority 1999, dated 2004)
Like-named read-outs stand apart in the source and are kept apart here.

How the values were obtained:
[1] = molecular target: T1, serotonin S2 (5HT2A) receptors (Rattus norvegicus, UniProt P14842); assay: Inhibition of [3H]-ketanserin binding to serotonin S2 (5HT2A) receptors in rat cortex in vitro
T1 construct: rats (125-250 g) are sacrificed and cortical tissue is dissected and weighed; from tissue; host or cells: rat cortex membranes (male Wistar rats)
Protocol: INHIBITION OF [^3H]-KETANSERIN BINDING TO SEROTONIN S2 (5HT2A) RECEPTORS IN RAT CORTEX IN VITRO
By this method, the inhibition by drugs of the binding of [^3H]-ketanserin (0.5 nM) to serotonin S2 (5-HT2) receptors in membranes from rat cortex is determined in vitro.
The tissue is homogenized (Ultra Turrax, 10 sec) in 10 mL of ice cold 50 mM tris buffer pH 7.7 (at 25° C.). The centrifige glassware used in this step has been rinsed by sonication for 10 min in ethanol. The homogenate is centrifuged twice at 20,000 g for 10 min. at 4° C., with rehomogenization of the pellet in 10 mnL ice-cold buffer. The final pellet is homogenized in 250 vol (w/v) ice-cold buffer.
Incubation tubes (96 deep well titer plate) kept on ice receive 50 mL of [^3H]-ketanserin (final concentration 0.5 nM).
The binding experiment is initiated by addition of […] of tissue suspension (final tissue content corresponds to 4 mg original tissue) and by placing the 96 deep well titer plate in a 37° C. water bath. All tests are made in triplicates.
After incubation for 30 min, the samples are filtered on a Brandel harvester under vacuum (18 inch Hg) through printed filter mat B (13 mm). Titerplate and filter are washed 2×10 sec. flow 50L/h with ice cold buffer.
The printed filter mat with purred labelled tissue are dried for 1 h at 110° C. and hereafter placed in a sample bag with Meltilex B/HS 14.5 g and melted together on the T-tray heat seal.
Specific binding is obtained by subtracting the nonspecific binding in the presence of 1 mM mianserin.
(§1) For determination of the inhibition of binding, five concentrations of drugs covering 3 decades are used.
[^3H]-ketanserin=(ethylene-^3H)-ketanserin hydrochloride from New England Nuclear, specific activity […].

dopamine D2 receptors = molecular target: T2, dopamine D2 receptors (Rattus norvegicus, UniProt P61169); assay: Inhibition of [3H]-spiperone binding to dopamine D2 receptors in rat corpus striatum in vitro
T2 construct: rats (125-250 g) are sacrificed and striatal tissue is dissected and weighed; from tissue; host or cells: rat corpus striatum membranes (male Wistar rats)
Protocol: Inhibition of [^3H]-Spiperone Binding to Dopamnine D2 Receptors in Rat Corpus Striatum in vitro
By this method, the inhibition by drugs of the binding of [^3H]-spiperone (=^3H]-spiro-peridol) (0.5 nM) to dopamine D-2 receptors in membranes from rat corpus striatum is determined in vitro. […] PharmacoL. ToxicoL. […] This is a test for dopamnine D2 receptor binding affinity in vitro.
The tissue is homogenized (Ultra Turrax, 10 sec.) in 10 mL of ice-cold 50 mM K-phosphate buffer pH 7.4 (at 25° C.). The homogenate is centrifuiged twice at 20,000 g for 10 min at 4° C. with rehomogenization of the pellet in 10 mL ice-old buffer. The final pellet is homogenized in 1300 vol (w/v) ice-cold buffer.
The binding experiment is initiated by addition of 100 μl of [^3H]-spiperone (final concentration 0.5 nM) and by placing the tubes in a 37° C. water bath. […] The tubes are rinsed with 5 mL ice-old buffer which are then poured on the filters. Thereafter, the filters are washed with 2×5 mL of buffer. The filters are placed in counting vials and 4 mL of appropriate scintillation fluid (e.g. Picofluor™15) are added. After shaking for 1 h and storage for 2 hrs in the dark, the content of radioactivity is determined by liquid scintillation counting. Specific binding is obtained by subtracting the nonspecific binding in the presence of 10 μM of 6,7-ADTN.
For determination of the inhibition of binding, five concentrations of drugs covering 3 orders of magnitude are used.
[^3H]-Spiperone=[phenyl-4-^3H]-spiperone from Amersham International plc. England, specific activity 15-25 Ci/mmol.

α1-adrenoceptors = assay: Inhibition of [3H]-prazosin binding to α1-adrenoceptors in rat brain in vitro; settings: [3H]-prazosin 0.25 nM, membranes from rat brain
Protocol: Method and results in Hyttel & Larsen, J. Neurochem.
The tissue is homogenized (Ultra Turrax, 10 se) in 10 mL of ice cold 50 mM tris buffer pH 7.7 (at 25° C.). The homogenate is centiflged twice at 20,000 g for 10 min at 4° C. with rehomogenization of the pellet in 10 ml ice-cold buffer. The final pellet is homogenized in 250 vol (w/v) ice-cold buffer.
The binding experiment is initiated by addition of […] of tissue suspension (final tissue content corresponds to 3 mg original tissue) and by placing the 96 deep well titer plate in a 25° C. water bath. AU tests are made in triplicates. After incubation for 20 min, the samples are filtered on a Brandel harvester under vacuum (18 inch. Hg) through printed filtermat B (13 mm). Titerplates and filter are washed 1×10 sec flow 50 L/h with ice cold buffer.
The filter mat is dried for 1 h at 110° C. and then placed in a sample bag with Meltilex B/HS (14.5 g) and melted together on the T-Tray heat sealer.
as §1

[2] = [3H]-ketanserin 0.5 nM, membranes from rat cortex, read-out: IC50 values 5-HT2A
[3] = [3H]-spiperone 0.5 nM, membranes from rat corpus striatum, read-out: IC50 values D2

T1 sequence (P14842 whole entry): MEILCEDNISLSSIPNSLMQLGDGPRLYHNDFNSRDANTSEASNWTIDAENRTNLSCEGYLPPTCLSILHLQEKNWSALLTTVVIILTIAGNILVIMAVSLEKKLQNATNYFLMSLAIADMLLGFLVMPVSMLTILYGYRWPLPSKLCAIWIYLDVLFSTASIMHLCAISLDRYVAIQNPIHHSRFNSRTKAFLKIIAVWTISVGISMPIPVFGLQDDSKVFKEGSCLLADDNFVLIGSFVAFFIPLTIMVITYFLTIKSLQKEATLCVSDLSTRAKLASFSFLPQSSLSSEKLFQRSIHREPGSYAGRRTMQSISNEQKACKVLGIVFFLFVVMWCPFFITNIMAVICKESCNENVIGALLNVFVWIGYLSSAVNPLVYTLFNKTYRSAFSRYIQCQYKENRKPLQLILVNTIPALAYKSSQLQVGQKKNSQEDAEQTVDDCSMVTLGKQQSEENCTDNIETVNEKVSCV
T2 sequence (P61169 whole entry): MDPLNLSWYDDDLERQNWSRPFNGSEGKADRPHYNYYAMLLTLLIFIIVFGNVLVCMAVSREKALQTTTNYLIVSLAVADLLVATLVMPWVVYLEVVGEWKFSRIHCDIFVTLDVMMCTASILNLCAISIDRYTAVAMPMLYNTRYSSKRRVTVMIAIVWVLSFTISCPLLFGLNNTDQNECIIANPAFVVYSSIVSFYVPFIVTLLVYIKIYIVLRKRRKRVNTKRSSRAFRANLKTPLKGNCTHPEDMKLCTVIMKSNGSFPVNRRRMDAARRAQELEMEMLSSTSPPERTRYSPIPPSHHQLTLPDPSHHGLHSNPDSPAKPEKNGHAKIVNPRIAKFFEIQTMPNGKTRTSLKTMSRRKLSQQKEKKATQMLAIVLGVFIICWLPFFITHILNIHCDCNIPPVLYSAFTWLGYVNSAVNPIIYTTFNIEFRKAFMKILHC

| SMILES | IC50 [1, 2] [nM] | IC50 (dopamine D2 receptors; [3]) [nM] | IC50 (α1-adrenoceptors) [nM] | melting point [°C] | IC50 [1] [nM] | IC50 (dopamine D2 receptors) [nM] |
| --- | --- | --- | --- | --- | --- | --- |
| CN(C)C(=O)c1ccc2c(c1)c(C1CCN(CCN3CCNC3=O)CC1)cn2-c1ccc(F)cc1 [Compound 7b, N,N-Dimethyl-1-(4-fluorophenyl)-3-[1-[2-(2-imidazolidinon-1-yl)ethyl]4-piperidinyl]-1H-indole-5-carboxamide] | 18 | 170 | 5.4 | 172 to 176 | – | – |
| CN(C)Cc1ccc2c(c1)c(C1CCN(CCN3CCNC3=O)CC1)cn2-c1ccc(F)cc1 [Compound 7c, 1-[2-[4-[5-Dimethylaminomethyl-1-(4-fluorophenyl)-1H-indol-3-yl]-1-piperidinyl]ethyl]-2-imidazolidinon] | 50 | 180 | 1.3 | 166 to 174 | – | – |
| CN(C)Cc1ccc2c(c1)c(C1=CCN(CCN3CCNC3=O)CC1)cn2-c1ccc(F)cc1 [Compound 7d, 1-[2-[4-[5-Dimethylaminomethyl-1-(4-fluorophenyl)-1H-indol-3-yl]-1,2,3,6-tetrahydropyridin-1-yl]ethyl]-2-imidazolidinon] | – | – | 0.53 | 146 to 148 | 80 | 35 |
| COc1cc2nc(N3CCN(C(=O)c4ccco4)CC3)nc(N)c2cc1OC [Prazosin, reference compound] | – | – | 0.36 | – | – | – |
| O=C1NCCN1CCN1CCC(c2cn(-c3ccc(F)cc3)c3ccc(Cl)cc23)CC1 [Sertindole, sertindole, reference compound] | – | – | 3.4 | – | – | – |
